Viability data for 53 molecules are collected here from paper PMC11995724, “Antibiotic target discovery by integrated phenotypic and activity-based profiling of electrophilic fragments” (Cell chemical biology, 2025).

Each structure is given as a SMILES string. Structures can show the parent of a compound that is named as a salt.

The nature of this series: in vitro. The conditions noted are these: human, hek293t cells.
`CCc1ccc(CC)c(C(=O)CCl)c1` [10-H14, 2-chloro-1-(2,5-diethylphenyl)ethan-1-one]: the viability at 48 h, 25 µM was 33.6%.

Take `O=C1C=CC(=O)N1c1cc([N+](=O)[O-])ccc1Cl` [10-H15, 1-(2-chloro-5-nitrophenyl)-2,5-dihydro-1H-pyrrole-2,5-dione]: the viability at 48 h, 25 µM was 126%.

In the case of `Cc1ccc(NC(=O)N2CCN(C(=O)C=CCN(C)C)CC2)cc1` [10-H16, 4-[4-(dimethylamino)but-2-enoyl]-N-(4-methylphenyl)piperazine-1-carboxamide], the viability at 48 h, 25 µM is 94.2%.

For `O=C(CCl)c1ccc2c(c1)-c1ccccc1C2` [10-H17, 2-chloro-1-(9H-fluoren-3-yl)ethan-1-one], the viability at 48 h, 25 µM was 51.2%.

For `Cc1cc(C(=O)CCl)c(C)n1-c1ccc(Cl)cc1` [10-H18, 2-chloro-1-[1-(4-chlorophenyl)-2,5-dimethyl-1H-pyrrol-3-yl]ethan-1-one], the viability at 48 h, 25 µM stood at 0.517%.

For the molecule `CS(=O)(=O)N1CCCc2cc(C(=O)CCl)ccc21` [10-H19, 2-chloro-1-(1-methanesulfonyl-1,2,3,4-tetrahydroquinolin-6-yl)ethan-1-one], the viability at 48 h, 25 µM was 72%.

Consider `Cc1ccccc1-n1c(C)cc(C(=O)CCl)c1C` [10-H20, 2-chloro-1-[2,5-dimethyl-1-(2-methylphenyl)-1H-pyrrol-3-yl]ethan-1-one], for which the viability at 48 h, 25 µM was 0.349%.

Turning to `COc1ccc(NC(=O)N2CCSSCC2)cc1` [10-H21, N-(4-methoxyphenyl)-1,2,5-dithiazepane-5-carboxamide], the viability at 48 h, 25 µM came out at 103%.

In the case of `COc1ccc(C(=O)C(C)Cl)cc1` (centres unmarked) [10-H22, 2-chloro-1-(4-methoxyphenyl)propan-1-one], the viability at 48 h, 25 µM was 73.6%.

`NC(=O)CCc1ccc(C(=O)CCl)cc1` [10-I03, 3-[4-(2-chloroacetyl)phenyl]propanamide]: the viability at 48 h, 25 µM was found to be 4.69%.

Take `Cc1cc(C(=O)CCl)c(C)n1-c1cc(Cl)cc(Cl)c1` [10-I04, 2-chloro-1-[1-(3,5-dichlorophenyl)-2,5-dimethyl-1H-pyrrol-3-yl]ethan-1-one]: the viability at 48 h, 25 µM is 0.227%.

`NS(=O)(=O)c1cccc(N2C(=O)C=CC2=O)c1` [10-I05, 3-(2,5-dioxo-2,5-dihydro-1H-pyrrol-1-yl)benzene-1-sulfonamide]: the viability at 48 h, 25 µM came out at 93.4%.

For the molecule `Cc1cc(C(=O)CCl)c(C)c(C)c1C` [10-I06, 2-chloro-1-(2,3,4,5-tetramethylphenyl)ethan-1-one], the viability at 48 h, 25 µM is 0.728%.

On to `CN(C)C(=O)c1csc(C(=O)CCl)c1` [10-I07, 5-(2-chloroacetyl)-N,N-dimethylthiophene-3-carboxamide], for which the viability at 48 h, 25 µM stood at 56.6%.

In the case of `Cc1cc(C(=O)CCl)c(C)n1C(c1ccccc1)c1ccccc1` [10-I08, 2-chloro-1-[1-(diphenylmethyl)-2,5-dimethyl-1H-pyrrol-3-yl]ethan-1-one], the viability at 48 h, 25 µM came out at 1.32%.

Consider `O=C(CCl)c1ccncc1F` [10-I09, 2-chloro-1-(3-fluoropyridin-4-yl)ethan-1-one hydrochloride], for which the viability at 48 h, 25 µM was found to be 85%.

On to `CC(=O)NCc1ccc(C(=O)CCl)o1` [10-I10, N-{[5-(2-chloroacetyl)furan-2-yl]methyl}acetamide], for which the viability at 48 h, 25 µM turned out to be 86.8%.

Regarding `COC(=O)c1cccc(C(=O)CCl)c1` [10-I11, methyl 3-(2-chloroacetyl)benzoate], the viability at 48 h, 25 µM was 1.87%.

Consider `COc1ccc(-n2c(C)cc(C(=O)CCl)c2C)cc1` [10-I12, 2-chloro-1-[1-(4-methoxyphenyl)-2,5-dimethyl-1H-pyrrol-3-yl]ethan-1-one], for which the viability at 48 h, 25 µM is 0.472%.

As for `CS(=O)(=O)c1ccc(C(=O)CCl)cc1` [10-I13, 2-chloro-1-(4-methanesulfonylphenyl)ethan-1-one], the viability at 48 h, 25 µM was found to be 65.1%.

Take `O=C(CCl)c1ccc2[nH]c(=O)[nH]c2c1` [10-I14, 5-(2-chloroacetyl)-2,3-dihydro-1H-1,3-benzodiazol-2-one]: the viability at 48 h, 25 µM amounted to 1.71%.

On to `O=C(CCl)Cc1cc(Cl)cc(Cl)c1` [10-I15, 1-chloro-3-(3,5-dichlorophenyl)propan-2-one], for which the viability at 48 h, 25 µM came out at 3.97%.

As to `Cn1c(N)c(C(=O)CCl)c(=O)[nH]c1=O` [10-I16, 6-amino-5-(2-chloroacetyl)-1-methyl-1,2,3,4-tetrahydropyrimidine-2,4-dione], the viability at 48 h, 25 µM was determined as 104%.

In the case of `CC(C)c1ccc(CC(=O)CCl)cc1` [10-I17, 1-chloro-3-[4-(propan-2-yl)phenyl]propan-2-one], the viability at 48 h, 25 µM worked out at 73.5%.

In the case of `O=C(CCl)c1ccc(F)cc1F` [10-I18, 2-chloro-1-(2,4-difluorophenyl)ethan-1-one], the viability at 48 h, 25 µM came out at 77.2%.

On to `Cc1cccc(CC(=O)CCl)c1` [10-I19, 1-chloro-3-(3-methylphenyl)propan-2-one], for which the viability at 48 h, 25 µM worked out at 68.3%.

With `CC(=O)N1c2ccc(C(=O)CCl)cc2CC1C` (centres unmarked) [10-I20, 1-(1-acetyl-2-methyl-2,3-dihydro-1H-indol-5-yl)-2-chloroethan-1-one], the viability at 48 h, 25 µM was determined as 3.53%.

Consider `CCn1cc(N2C(=O)C=CC2=O)cn1` [10-I21, 1-(1-ethyl-1H-pyrazol-4-yl)-2,5-dihydro-1H-pyrrole-2,5-dione], for which the viability at 48 h, 25 µM was 38.5%.

On to `CC(C)C(C(=O)O)N1C(=O)C=CC1=O` (centres unmarked) [10-I22, 2-(2,5-dioxo-2,5-dihydro-1H-pyrrol-1-yl)-3-methylbutanoic acid], for which the viability at 48 h, 25 µM worked out at 106%.

Consider `O=C(CCl)c1ccccn1` [10-J03, 2-chloro-1-(pyridin-2-yl)ethan-1-one], for which the viability at 48 h, 25 µM was determined as 94.4%.

As to `N#CC(C(=O)CCl)=C1Nc2ccccc2S1` [10-J04, 4-chloro-2-(2,3-dihydro-1,3-benzothiazol-2-ylidene)-3-oxobutanenitrile], the viability at 48 h, 25 µM was 0.855%.

`Cc1nn(CCC(=O)N2CCSSCC2)c(C)c1[N+](=O)[O-]` [10-J05, 3-(3,5-dimethyl-4-nitro-1H-pyrazol-1-yl)-1-(1,2,5-dithiazepan-5-yl)propan-1-one]: the viability at 48 h, 25 µM was found to be 96.8%.

As for `Cn1cc(C(=O)CCl)cc1C(N)=O` [10-J06, 4-(2-chloroacetyl)-1-methyl-1H-pyrrole-2-carboxamide], the viability at 48 h, 25 µM was 1.55%.

In the case of `NC(=O)Nc1ccc(C(=O)CCl)cc1` [10-J07, [4-(2-chloroacetyl)phenyl]urea], the viability at 48 h, 25 µM is 108%.

`Cc1cc(C(=O)CCl)c(C)[nH]1` [10-J08, 2-chloro-1-(2,5-dimethyl-1H-pyrrol-3-yl)ethan-1-one]: the viability at 48 h, 25 µM was 1.07%.

`O=S(=O)(c1cc(Cl)cc(Cl)c1)N1CCSSCC1` [10-J09, 5-(3,5-dichlorobenzenesulfonyl)-1,2,5-dithiazepane]: the viability at 48 h, 25 µM came to 102%.

With `Cn1ncc(C(=O)CCl)n1` [10-J10, 2-chloro-1-(2-methyl-2H-1,2,3-triazol-4-yl)ethan-1-one], the viability at 48 h, 25 µM came out at 85.5%.

For `CC(=O)Nc1ccc(NC(=O)N2CCSSCC2)cc1` [10-J11, N-(4-acetamidophenyl)-1,2,5-dithiazepane-5-carboxamide], the viability at 48 h, 25 µM was determined as 120%.

In the case of `Cc1cc(C(=O)CCl)c(C)n1-c1ccc(C(C)C)cc1` [10-J12, 2-chloro-1-{2,5-dimethyl-1-[4-(propan-2-yl)phenyl]-1H-pyrrol-3-yl}ethan-1-one], the viability at 48 h, 25 µM was 0.754%.

As for `Cc1ccccc1N1C(=O)C=CC1=O` [10-J13, 1-(2-methylphenyl)-2,5-dihydro-1H-pyrrole-2,5-dione], the viability at 48 h, 25 µM was 109%.

As for `Cc1cc(C(=O)CCl)c(C)n1-c1ccc(C(F)(F)F)cc1` [10-J14, 2-chloro-1-{2,5-dimethyl-1-[4-(trifluoromethyl)phenyl]-1H-pyrrol-3-yl}ethan-1-one], the viability at 48 h, 25 µM worked out at 0.425%.

Turning to `COc1ccc(N2C(=O)C=CC2=O)c(OC)c1` [10-J15, 1-(2,4-dimethoxyphenyl)-2,5-dihydro-1H-pyrrole-2,5-dione], the viability at 48 h, 25 µM was 109%.

Take `CSc1cccc(-n2c(C)cc(C(=O)CCl)c2C)c1` [10-J16, 2-chloro-1-{2,5-dimethyl-1-[3-(methylsulfanyl)phenyl]-1H-pyrrol-3-yl}ethan-1-one]: the viability at 48 h, 25 µM stood at 0.898%.

`COc1ccc(C(=O)C(C)Cl)c(OC)c1` (centres unmarked) [10-J17, 2-chloro-1-(2,4-dimethoxyphenyl)propan-1-one]: the viability at 48 h, 25 µM worked out at 91.9%.

In the case of `Nc1c(C(=O)CCl)c(=O)[nH]c(=O)n1Cc1ccccc1` [10-J18, 6-amino-1-benzyl-5-(2-chloroacetyl)-1,2,3,4-tetrahydropyrimidine-2,4-dione], the viability at 48 h, 25 µM is 88.2%.

For `O=C1C=CC(=O)N1c1ccc(OC(F)(F)F)cc1` [10-J19, 1-[4-(trifluoromethoxy)phenyl]-2,5-dihydro-1H-pyrrole-2,5-dione], the viability at 48 h, 25 µM was determined as 85.4%.

Take `CCOC(=O)c1c(C)[nH]c(C(=O)CCl)c1C` [10-J20, ethyl 5-(2-chloroacetyl)-2,4-dimethyl-1H-pyrrole-3-carboxylate]: the viability at 48 h, 25 µM was 1.66%.

For the molecule `Cc1cc(Cl)ccc1OC(C)C(=O)N1CCSSCC1` (centres unmarked) [10-J21, 2-(4-chloro-2-methylphenoxy)-1-(1,2,5-dithiazepan-5-yl)propan-1-one], the viability at 48 h, 25 µM worked out at 110%.

As for `CC(Cl)C(=O)C=C1N(C)c2ccccc2C1(C)C` (centres unmarked) [10-J22, 3-chloro-1-(1,3,3-trimethyl-2,3-dihydro-1H-indol-2-ylidene)butan-2-one], the viability at 48 h, 25 µM was 5.56%.

Regarding `COc1cccc(N2C(=O)C=CC2=O)c1` [10-K03, 1-(3-methoxyphenyl)-2,5-dihydro-1H-pyrrole-2,5-dione], the viability at 48 h, 25 µM amounted to 18.5%.

In the case of `Cc1cc(C(=O)CCl)c(C)n1-c1ccc(OC(F)F)c(Cl)c1` [10-K04, 2-chloro-1-{1-[3-chloro-4-(difluoromethoxy)phenyl]-2,5-dimethyl-1H-pyrrol-3-yl}ethan-1-one], the viability at 48 h, 25 µM stood at 0.0199%.

With `O=C(CCl)c1c[nH]c2ccncc12` [10-K05, 2-chloro-1-{1H-pyrrolo[3,2-c]pyridin-3-yl}ethan-1-one], the viability at 48 h, 25 µM amounted to 1.3%.

For the molecule `CC(=O)Nc1ccc(C(=O)C(C)Cl)cc1` (centres unmarked) [10-K06, N-[4-(2-chloropropanoyl)phenyl]acetamide], the viability at 48 h, 25 µM was found to be 101%.
